Data taken from US6414019B1, “Synergistic mixtures of selected amino acids” (Agrogene Ltd., priority 1997, dated 2002).
≈ marks a conversion by molar mass, not a printed value. Where “and” joins values, the source holds several entries; their conditions need not be identical. Equal values may be shown once.

Assays:
[1] = tested on: Pseudoperonospora cubensis (resistance to metalaxyl); conditions: in vivo
[2] = tested on: Peronospora tabacina R strain; assay: Control of downy mildew in tobacco, fungal isolate R (sporulation inhibition); assay type: in vivo
[3] = tested on: Peronospora tabacina S strain; assay: Control of downy mildew in tobacco, fungal isolate S (sporulation inhibition); assay type: in vivo
[4] = tested on: Plasmopara viticola; conditions: in vivo
[5] = 50 mg/L active ingredient, fungal isolate R, Table 28
[6] = 16 mg/L active ingredient, fungal isolate R, Table 29
[7] = 62 mg/L active ingredient, fungal isolate R, Table 29
[8] = 100 mg/L active ingredient, fungal isolate R, Table 30
[9] = 200 mg/L active ingredient, fungal isolate R, Table 30
[10] = 250 mg/L active ingredient, fungal isolate R, Table 29
[11] = 400 mg/L active ingredient, fungal isolate R, Table 30
[12] = 0.5 mg/L active ingredient, tobacco, fungal isolate S (Table 31)
[13] = 5 mg/L active ingredient, tobacco, fungal isolate S (Table 31)
[14] = 50 mg/L active ingredient, tobacco, fungal isolate S (Table 31)

Q: What does the source list for COCC(=O)N(c1c(C)cccc1C)[C@H](C)C(=O)OC (single isomer, unassigned) [Metalaxyl Single Isomer]?
A: ED90 [1]: 844 µg/mL (≈ 3020 µM); Percent Disease Control [1]: 0% and 8%

Q: Which “Percent Disease Control” value ([2]; 5 mg/L active ingredient, fungal isolate R, Table 28) does the source give for CO/C=C(/C(=O)OC)c1ccccc1Oc1cc(Oc2ccccc2C#N)ncn1 [AZOXYSTROBINE, Azoxystrobin] here?
A: 81%

Q: And the “Percent Disease Control” value ([2]; 10 mg/L active ingredient, fungal isolate R, Table 28)?
A: 81%

Q: What about the “Percent Disease Control” value ([2]; 25 mg/L active ingredient, fungal isolate R, Table 28) of the same compound?
A: 81%

Q: What about the “Percent Disease Control” value [2, 5] of the same compound?
A: 93%

Q: What about the “Percent Disease Control” value ([2]; dose not printed (value stands in the Ratio column), fungal isolate R, Table 28) of the same compound?
A: 13%

Q: And the ED90 ([2]; fungal isolate R, Table 28)?
A: 27 µg/mL (≈ 66.9 µM)

Q: For CC(N)CC(=O)O (stereo not drawn) [BABA, DLβ-amino-butanoic acid], which “Percent Disease Control” value [2, 6] is on record?
A: 3%

Q: What about the “Percent Disease Control” value [2, 5] of the same compound?
A: 0%

Q: What about the “Percent Disease Control” value [2, 7] of the same compound?
A: 27%

Q: And the “Percent Disease Control” value ([2]; 100 mg/L active ingredient, fungal isolate R, Table 28)?
A: 13%

Q: What about the “Percent Disease Control” value [2, 8] of the same compound?
A: 37%

Q: What about the “Percent Disease Control” value ([2]; 200 mg/L active ingredient, fungal isolate R, Table 28) of the same compound?
A: 100%

Q: And the “Percent Disease Control” value [2, 9]?
A: 62%

Q: What about the “Percent Disease Control” value [2, 10] of the same compound?
A: 51%

Q: And the “Percent Disease Control” value [2, 11]?
A: 100%

Q: What about the “Percent Disease Control” value [3, 12] of the same compound?
A: 0%

Q: What about the “Percent Disease Control” value [3, 13] of the same compound?
A: 27%

Q: What about the “Percent Disease Control” value [3, 14] of the same compound?
A: 59%

Q: And the ED90 ([3]; in vivo)?
A: 78 µg/mL (≈ 756 µM)

Q: What about the ED90 [4] of the same compound?
A: 38 µg/mL and 33 µg/mL and 36 µg/mL and 44 µg/mL

Q: With CSC(=O)c1cccc2nnsc12 [BION, Acibenzolar-s-methyl] as the compound, how does the “Percent Disease Control” value [2, 6] read?
A: 76%

Q: And the “Percent Disease Control” value [2, 7]?
A: 76%

Q: And the “Percent Disease Control” value [2, 8]?
A: 37%

Q: And the “Percent Disease Control” value [2, 9]?
A: 50%

Q: And the “Percent Disease Control” value [2, 10]?
A: 99%

Q: And the “Percent Disease Control” value [2, 11]?
A: 80%

Q: And the ED90 ([2]; fungal isolate R, Table 29)?
A: 88 µg/mL (≈ 418 µM)

Q: What about the ED90 ([2]; fungal isolate R, Table 30) of the same compound?
A: 443 µg/mL (≈ 2110 µM)

Q: And the “Percent Disease Control” value [3, 12]?
A: 54%

Q: And the “Percent Disease Control” value [3, 13]?
A: 76%

Q: And the “Percent Disease Control” value [3, 14]?
A: 85%

Q: What about the ED90 ([3]; tobacco, fungal isolate S (Table 31)) of the same compound?
A: 52 µg/mL (≈ 247 µM)

Q: And the ED90 [4]?
A: 6 µg/mL (≈ 28.5 µM)

Q: [Cu+2].[OH-].[OH-] [Cu(OH)2, copper hydroxide] was tested. Which ED90 [1] did it give?
A: 304 µg/mL

Q: And the “Percent Disease Control” value [1]?
A: 67% and 77% and 80%

Q: How did the “Percent Disease Control” value [2, 8] turn out when CCNC(=O)NC(=O)/C(C#N)=N/OC [Cymoxanil] was run?
A: 25%

Q: And the “Percent Disease Control” value [2, 9]?
A: 25%

Q: What about the “Percent Disease Control” value [2, 11] of the same compound?
A: 62%

Q: What about the ED90 ([2]; in vivo) of the same compound?
A: 596 µg/mL (≈ 3010 µM)

Q: Which results are given for COc1ccc(C(=CC(=O)N2CCOCC2)c2ccc(Cl)cc2)cc1OC [DMN, DIMETHOMORPH]?
A: Percent Disease Control [1]: 32% Control; ED90 [4]: 19 µg/mL (≈ 49 µM)

Q: With O=C1c2ccccc2C(=O)N1SC(Cl)(Cl)Cl [FOLPET, Folpet] as the compound, how does the ED90 [1] read?
A: 403 µg/mL (≈ 1360 µM)

Q: What does the source list for Cc1ccc(C(C)NC(=O)[C@@H](NC(=O)OC(C)C)C(C)C)cc1 (stereo partly shown) [Fencaramid]?
A: ED90 [1]: 19 µg/mL (≈ 59.3 µM); Percent Disease Control [1]: 78% and 83% and 95% and 100%

Q: Which “Percent Disease Control” value [2, 6] does the source give for COCC(=O)N(c1c(C)cccc1C)[C@H](C)C(=O)OC [RIDOMILGOLD] here?
A: 49%

Q: And the “Percent Disease Control” value [2, 7]?
A: 37%

Q: And the “Percent Disease Control” value [2, 8]?
A: 20%

Q: What about the “Percent Disease Control” value [2, 9] of the same compound?
A: 35%

Q: What about the “Percent Disease Control” value [2, 10] of the same compound?
A: 58%

Q: What about the “Percent Disease Control” value [2, 11] of the same compound?
A: 42%

Q: And the ED90 ([2]; fungal isolate R, Table 29)?
A: 416 µg/mL (≈ 1490 µM)

Q: What about the ED90 ([2]; fungal isolate R, Table 30) of the same compound?
A: >1000 µg/mL

Q: With Mancozeb as the compound, how does the ED90 [1] read?
A: 315 µg/mL and 167 µg/mL
